For assay [1], the system named is P. carinii. The experiment in a line: Immunosuppressed rat study of P. carinii infection, two week treatment, lung cysts and parasite nuclei counted. In kind it is in vivo, Sprague-Dawley rats. Particulars: dexamethasone-immunosuppressed rats; two weeks treatment; Compound IA 2 mg i.p. twice daily; TMP-SMZ in drinking water (208 mg TMP and 1.040 g SMZ/liter); controls 3.2 x 10⁸ - 1.5 x 10⁹. As to the method:
In a representative study employing Compound IA in rats, nine male Sprague-Dawley rats weighing approximately 200 grams each, were immunosupressed by the addition of dexamethasone to the drinking water (2.0 mg/liter) for six weeks to induce the development of P. carinii infections. To enhance the infection the rats were also maintained on a low protein diet. At the beginning of the seventh week the rats were divided into three groups of three rats each. All three groups continued to receive dexamethasone in the drinking water and low protein diet throughout the remainder of the study. The rats in Group I were kept as untreated infected controls, those in Group II were injected intraperitoneally twice daily for two weeks with 0.5 ml of sterile dH₂O containing 2 mg of Compound IA, and those in Group III were treated with trimethoprim-sulfamethoxazole (TMP-SMZ) in the drinking water (208 mg TMP and 1.040 g of SMZ/liter) for two weeks, a known treatment for P. carinii infections. Two rats died early in the experiment. One was from group II (rat 72A) and the other from group III (rat 75A). It was not determined whether they died from Pneumocystis pneumonia. At the end of the two week treatment period (a total of eight weeks of immonosuppression) the animals were sacrificed and the lung tissue removed. […]

Assay [2] has as its system P. carinii. The assay is described as follows: Similar immunosuppressed rat study, 7 day treatment, cysts per lung counted. In kind it is in vivo. Particulars: immunosuppressed rats; 2 mg/kg injected twice daily for 7 days; vehicle 10% DMSO. As to the method:
A similar rat study was conducted to determine the antipneumocystis activity of 1-[(4R,5R)-4,5-dihydroxy-N²-[4-(octyloxy)benzoyl]-L-ii ornithine]echinocandin B (Compound IBii). After 6 weeks of immunosuppression the rats were injected twice daily for 7 days with vehicle alone. Compound IBii (2 mg/kg) or Compound IA (2 mg/kg) during which time immunosuppression was continued. At the end of the treatment period the animals were sacrificed and the number of cysts per lung determined. Compound IA reduced the number of cysts by >99% while Compound IBii reduced the cyst counts by approximately 84% (compared to the vehicle control, 10% DMSO).

The structures appear in SMILES notation. Numbered stars: 1 amine (or outer) side, 2 acyl side, 3 side chain; on linkers, the order of the positions; unused ones are H or OH. Bridge positions count the residues as written; N and C are the ends. Square brackets hold non-standard residues; d marks the D form. Peptide text beside a SMILES is read from it. * marks the point of attachment. ξ: configuration not given here. ξOrn(4R-OH,5R-OH) = O=C(C(C[C@@H](O)[C@@H](O)N[*:3])N[*:1])[*:2]; ξhTyr(3S-OH,4S-OH) = NC(C(=O)O)[C@H](O)[C@@H](O)c1ccc(O)cc1; ξOrn(4,5-diOH) = O=C(C(CC(O)C(O)N[*:3])N[*:1])[*:2]; ξhTyr(βξ-OH,γξ-OH) = NC(C(=O)O)C(O)C(O)c1ccc(O)cc1; Benzoyl(4-octyloxy) = CCCCCCCCOc1ccc(C(=O)*)cc1; X3 = C[C@H]1CN([*:1])C(C(=O)[*:2])[C@H]1O; ξPro(3ξ-OH,4ξ-Me) = CC1CNC(C(=O)O)C1O; X2 = NC(=O)CC(O)C(N[*:1])C(=O)[*:2]; ξPro(4R-OH) = O=C(O)C1C[C@@H](O)CN1; X1 = CCC(C)CC(C)CCCCCCCCC(=O)*; Hyp = O=C(O)[CH]1C[CH](O)CN1; ξT = CC(O)C(N)C(=O)O

In the case of `CCC(C)CC(C)CCCCCCCCC(=O)NC1CC(O)C(O)NC(=O)C2C(O)C(C)CN2C(=O)C(C(O)CC(N)=O)NC(=O)C(C(O)C(O)c2ccc(O)cc2)NC(=O)C2CC(O)CN2C(=O)C(C(C)O)NC1=O` (stereo not drawn) [Compound IA] (X1-[ξOrn(4,5-diOH)]T[Hyp][ξhTyr(βξ-OH,γξ-OH)][X2][ξPro(3ξ-OH,4ξ-Me)]; lactam 1-C; configuration not given here), the “number of cysts in the lungs” value in assay [1] is “No cysts could be found”. The “reduction of the number of cysts per lung compared to the vehicle control” value in assay [2] is listed as over 99%.
With `CCCCCCCCOc1ccc(C(=O)NC2C[C@@H](O)[C@@H](O)NC(=O)C3[C@@H](O)[C@@H](C)CN3C(=O)C(C(C)O)NC(=O)C([C@H](O)[C@@H](O)c3ccc(O)cc3)NC(=O)C3C[C@@H](O)CN3C(=O)C(C(C)O)NC2=O)cc1` (stereo partly drawn) [Compound IBii, 1-[(4R,5R)-4,5-dihydroxy-N²-[4-(octyloxy)benzoyl]-L-ornithine]echinocandin B] ({Benzoyl(4-octyloxy)}-[ξOrn(4R-OH,5R-OH)][ξT][ξPro(4R-OH)][ξhTyr(3S-OH,4S-OH)][ξT][X3]; lactam 1-C), in assay [2], the “reduction of the number of cysts per lung compared to the vehicle control” value is “approximately 84%”.

Source of the values: patent EP0359529B1, “Method for the control of pneumocystis carinii” (Merck & Co., Inc., priority 1988, dated 1990).
